According to patent US12728116B2, “Methods of treating multiple sclerosis” (Vanda Pharmaceuticals Inc., priority 2021, dated 2026):
Where “and” joins values, the source holds several entries; their conditions need not be identical. Identical values can stand only once.

How the values were obtained:
[1] = system: adult subjects with relapsing MS; assay: Combined unique active lesions (CUAL) on brain MRI from baseline to Week 108; type: in vivo, human; conditions: for CUAL mean estimate (Lesions per year), negative binomial regression: ponesimod 20 mg, teriflunomide 14 mg; for Total number of lesions (CUAL): total time 1072 / 1067 years; for Raw mean lesions/year (CUAL): baseline to week 108
Procedure: Secondary efficacy variables and testing strategy: Four secondary efficacy endpoints were analyzed as per the statistical testing strategy outlined in FIG. 1. • Change from baseline to Week 108 in fatigue-related symptoms as measured by the symptoms domain of the FSIQ-RMS patient-reported outcome [Fatigue] • Cumulative number of combined unique active lesions from baseline to Week 108 on brain MRI [CUALs] • Time to first 12-week confirmed disability accumulation (CDA) from baseline to EOS on Expanded Disability Status Scale (EDSS) [12-week CDA] • Time to first 24-week CDA from baseline to EOS on EDSS [24-week CDA]
CUAL are new Gd+T1 lesions plus new or enlarging T2 lesions (without double-counting of lesions).
MRI scans were performed at Visits 2 (Baseline). 10 (Week 60), and 14 (EOT) and at any unscheduled visit (U1, U2, etc.). If applicable, MRI scans also were performed at the corresponding visits in the PTOP (Visits 10A and 14A). Testing at all visits were performed up to 7 days prior to or after the visit date.
T1-weighted imaging before and after i.v. administration of 0.1 mmol/kg body weight (=0.2 mL/kg) of Gd as well as PD-T2-weighted imaging was performed. Gd may cause nausea and vomiting and in very rare cases allergic reactions that could require immediate anti-anaphylactic therapy (such as steroids, epinephrine/adrenaline, etc.).
ARR differences and mean number of CUALs were examined using a negative binomial regression model with adjusting for the log time in the study (in years) as an offset.

[2] = system: Patients (18-55 years) with RMS; assay: Prespecified MRI-based endpoints and NEDA-3 status; type: in vivo, human
Procedure: Patients (18-55 years) with RMS (expanded disability status scale scores: 0-5.5) were randomized (1:1) to receive ponesimod (PON) 20 mg or teriflunomide (TER) 14 mg for 108 weeks. MRI assessments were: volume of T2 lesions; mean number of new gadolinium-enhancing (Gd+) T1 lesions and new/enlarging T2 lesions; and absence of active MRI lesions at week 108. NEDA-3 status (absence of confirmed relapse, Gd+T1 lesions and new/enlarging T2 lesions on annual MRIs, and 12-week confirmed disability accumulation) was evaluated from baseline to week 108.

[3] = baseline to Week 108, Full Analysis Set

| Structure (SMILES) | CUAL treatment effect (Rate Ratio), ponesimod vs. teriflunomide [1, 3] | CUAL mean estimate (Lesions per year), negative binomial regression [1, 3] [Lesions per year] | Total number of lesions (CUAL) ([1]; baseline to Week 108) | Raw mean lesions/year (CUAL) [1] [lesions/year] | CUALs, benefit compared with teriflunomide in subgroups ([1]; patients with EDSS≤3 and treatment-naïve patients) | Reduction of number of CUALs between baseline and week 108 compared to teriflunomide ([1]; ponesimod 20 mg vs teriflunomide 14 mg) [%] | Odds ratio for achieving NEDA-3, PON vs TER ([2]; At week 108) | Patients who achieved NEDA-3 ([2]; At week 108) [%] | Mean number of new Gd+T1 lesions per scan ([2]; baseline to week 108) | Mean numbers of new/enlarging T2 lesions per year ([2]; baseline to week 108) | Rate ratio, new Gd+T1 lesions per scan, PON vs TER ([2]; baseline to week 108) | Rate ratio, new/enlarging T2 lesions per year, PON vs TER ([2]; baseline to week 108) | Least square (LS) mean difference (PON-TER) in change from baseline in total volume of T2 lesions ([2]; baseline to week 108, PON 20 mg vs TER 14 mg) [mm^3] | PON vs TER odds ratio for absence of new Gd+T1 lesions ([2]; week 108) | PON vs TER odds ratio for absence of new/enlarging 12 lesions ([2]; week 108) |
| --- | --- | --- | --- | --- | --- | --- | --- | --- | --- | --- | --- | --- | --- | --- | --- |
| CCC/N=C1\S/C(=C\c2ccc(OC[C@H](O)CO)c(Cl)c2)C(=O)N1c1ccccc1C [Ponesimod, (R)-5-[3-chloro-4-(2,3-dihydroxy-propoxy)-benz[Z]ylidene]-2-([Z]-propylimino)-3-o-tolyl-thiazolidin-4-one] | 0.44 and 0.444 | 1.405 | 1671 | 1.559 | benefited from ponesimod compared with teriflunomide | 56 | 1.70 | 28.2 | 0.18 | 1.40 | 0.42 | 0.44 | −399.2 | 2.18 | 1.71 |
| C/C(O)=C(\C#N)C(=O)Nc1ccc(C(F)(F)F)cc1 [Teriflunomide, reference compound] |  | 3.164 | 3714 | 3.481 |  |  |  | 18.3 | 0.43 | 3.16 |  |  |  |  |  |
